# From ChEMBL document CHEMBL1201862, “PubChem BioAssay data set” (2004)
# Calls of active or inactive are those of the source.
# Experiments:
# CAAX prenyl protease 2 = CAAX prenyl protease 2 (Saccharomyces cerevisiae S288c, UniProt Q03530); format: biochemical
# Trypsin = Trypsin (Sus scrofa, UniProt P00761); test: porcine trypsin inhibitors, dose response, selectivity assay for Rce1 protease inhibitor project, biochemical, quenched peptide fluorescence, cherry-pick (AID 488789)
# [1] = molecular target: Scavenger receptor class B member 1 (Mus musculus, UniProt Q61009); test: inhibitors of SR-BI mediated HDL lipid uptake, dose response, ldlA[mSR-BI] cells, fluorescence, cherry pick (AID 493194); format: functional, cell-based;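 further: cellular uptake of fluorescent DiI-labeled HDL measured as cell fluorescence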
# [2] = molecular target: T1, Rac GTPase-activating protein 1 (Homo sapiens, UniProt Q9H0H5); test: MgcRacGAP GTPase-activating activity inhibitors, confirmation, biochemical, ADP Hunter fluorescence, primary and confirmatory (AID 624330); format: functional
# T1 sequence (Q9H0H5 whole entry): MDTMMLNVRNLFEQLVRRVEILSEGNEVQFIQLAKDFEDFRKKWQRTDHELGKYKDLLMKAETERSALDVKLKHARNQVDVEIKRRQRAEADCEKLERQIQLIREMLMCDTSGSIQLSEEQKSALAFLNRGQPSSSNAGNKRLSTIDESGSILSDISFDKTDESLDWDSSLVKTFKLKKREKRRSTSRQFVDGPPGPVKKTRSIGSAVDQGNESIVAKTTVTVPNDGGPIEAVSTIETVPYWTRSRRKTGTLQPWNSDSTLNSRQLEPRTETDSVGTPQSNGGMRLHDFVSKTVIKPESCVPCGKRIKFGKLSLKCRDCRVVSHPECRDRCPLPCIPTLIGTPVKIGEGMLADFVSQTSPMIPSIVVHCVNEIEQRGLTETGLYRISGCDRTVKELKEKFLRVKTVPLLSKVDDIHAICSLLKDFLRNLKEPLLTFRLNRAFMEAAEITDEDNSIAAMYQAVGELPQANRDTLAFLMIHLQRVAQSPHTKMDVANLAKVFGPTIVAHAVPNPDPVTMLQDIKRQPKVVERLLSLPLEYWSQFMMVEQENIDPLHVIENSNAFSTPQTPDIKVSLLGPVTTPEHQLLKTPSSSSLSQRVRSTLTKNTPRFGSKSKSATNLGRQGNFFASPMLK
# [3] = molecular target: G-protein coupled receptor 35 (Homo sapiens, UniProt Q9HC97); test: GPR35 antagonists blocking zaprinast-driven arrestin recruitment, primary screen, imaging, U2OS, beta-arrestin-GFP, zaprinast agonist (AID 2058); format: functional;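 further: antagonist potency meaning inhibition of agonist-induced arrestin redistribution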
# [4] = control 3'UTR Renilla luciferase suppression, dose response, counter-screen for Shn3 inhibitor project, cell-based, Clone20-Shn3RL, cherry-picked (AID 624133); format: functional
# [5] = HEK293T cytotoxicity, dose response, cytotoxicity control for miR-122 modulator project, cell-based, inhibitor set, cherry-pick, set 2 (AID 720697); format: functional
# BJ [6] = test: cells; format: functional, cell-based; conditions: Homo sapiens
# [7] = HepG2 cell cytotoxicity, dose response, cytotoxicity control for Shn3 inhibitor project, CellTiter-Glo, cherry-picked (AID 624134); format: functional, cell-based
# [8] = molecular target: Dual specificity tyrosine-phosphorylation-regulated kinase 1A (Rattus norvegicus, UniProt Q63470); format: biochemical, Homo sapiens
# [9] = molecular target: T2, RNA-binding protein pos-1 (Caenorhabditis elegans, UniProt G5EF15); test: inhibitors of POS-1/mex-3 RNA binding, dose response, biochemical, fluorescence polarization (AID 1964);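 further: purified POS-1 fused to maltose binding protein made in E. coli; potency of compounds blocking POS-1 binding to fluorescent RNA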
# T2 sequence (G5EF15 whole entry): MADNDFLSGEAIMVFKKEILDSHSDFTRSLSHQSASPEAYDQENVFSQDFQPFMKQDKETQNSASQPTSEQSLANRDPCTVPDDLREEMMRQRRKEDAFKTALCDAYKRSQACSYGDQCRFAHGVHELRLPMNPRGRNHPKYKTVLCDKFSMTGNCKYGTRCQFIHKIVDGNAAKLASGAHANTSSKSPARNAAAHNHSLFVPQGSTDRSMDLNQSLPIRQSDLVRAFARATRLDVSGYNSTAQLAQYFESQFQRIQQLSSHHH
# Estrogen receptor beta [10] = molecular target: T3, Estrogen receptor beta (Homo sapiens, UniProt Q92731);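 further: recombinant ER-beta bound to coactivator SRC1 peptide in presence of estradiol agonist; inhibitors block coactivator peptide binding and lower the FRET signal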
# Estrogen receptor beta [11] = molecular target: T3, Estrogen receptor beta; test: ERβ–SRC-3 coactivator interaction inhibitors, confirmation, orthogonal assay, biochemical, ELISA, streptavidin-HRP readout (AID 1060)
# [12] = cytotoxicity toward DRD oncogenic fibroblasts, dose response, cell-based, non-viral oncogenic, luminescence (AID 1934); format: functional; conditions: Homo sapiens
# [13] = molecular target: T4, Zinc finger protein mex-5 (Caenorhabditis elegans, UniProt Q9XUB2); test: MEX-5/TCR-2 RNA interaction inhibitors, dose response, biochemical, C. elegans, fluorescence polarization (AID 1960)
# T4 sequence (Q9XUB2 whole entry): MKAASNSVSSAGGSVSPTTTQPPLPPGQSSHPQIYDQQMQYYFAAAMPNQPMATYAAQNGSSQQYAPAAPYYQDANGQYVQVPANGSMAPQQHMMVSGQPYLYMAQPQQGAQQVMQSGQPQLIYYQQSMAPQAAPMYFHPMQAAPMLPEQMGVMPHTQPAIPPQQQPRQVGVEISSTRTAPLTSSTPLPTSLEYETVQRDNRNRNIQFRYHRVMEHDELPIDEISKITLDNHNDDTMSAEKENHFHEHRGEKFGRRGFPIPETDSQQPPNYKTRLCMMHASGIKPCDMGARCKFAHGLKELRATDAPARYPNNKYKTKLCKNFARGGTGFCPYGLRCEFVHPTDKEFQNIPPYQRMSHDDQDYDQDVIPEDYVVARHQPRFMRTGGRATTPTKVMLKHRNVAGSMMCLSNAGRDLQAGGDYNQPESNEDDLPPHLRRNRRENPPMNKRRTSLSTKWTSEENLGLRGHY
# [14] = molecular target: FAD-linked sulfhydryl oxidase ALR (Homo sapiens, UniProt P55789); test: inhibitors of human ALR sulfhydryl oxidase, dose response, biochemical, H2O2 detection, luminescence, cherry-pick (AID 493248)
# BJ [15] = test: cytotoxicity toward BJ-TERT fibroblasts, dose response, cell-based, RAS-independent, luminescence (AID 1933); format: functional; conditions: Homo sapiens
# Large T antigen = Large T antigen (Simian virus 40, UniProt P03070); format: functional, Betapolyomavirus macacae;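 further: Confirmatory-stage PubChem screen for compounds that inhibit SV40 T antigen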
# [16] = molecular target: Cyclin-dependent kinase 5/CDK5 activator 1 (Homo sapiens, UniProt Q00535); test: CDK5/p35 kinase inhibitors, dose response, biochemical, cherry-picked samples, set 2 (AID 504545)
# BJ [17] = test: cytotoxicity toward BJ-TERT-LT-ST fibroblasts, dose response, cell-based, RAS-independent, luminescence (AID 1935); format: functional; conditions: Homo sapiens;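 further: BJ fibroblasts immortalized with TERT plus LT and ST oncogenes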
# [18] = miR-122 activators in hepatoma reporter cells, dose response, cell-based, Huh7 psiCHECK-miR122, Renilla luciferase, cherry-picked (AID 651956); format: functional;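 further: huh7 hepatoma cells stably carrying a psiCHECK-2 miR-122 sensor plasmid; renilla luciferase signal reporting endogenous miR-122 activity after 48 h compound exposure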
# [19] = Shn3 3'UTR reporter inhibitors, dose response, cell-based, Clone20 osteoblasts, firefly luciferase, cherry-picked (AID 624132); format: functional;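 further: firefly luciferase luminescence from reporter carrying the Shn3 3'UTR in osteoblasts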
# J774.A1 = test: Confirmation of image-based Screening Assay for Inhibitors of Phagocytosis. [Related pubchem assays (depositor defined):AID1029, AID1643]; format: functional, cell-based; conditions: Mus musculus
# BJ [20] = test: cytotoxicity toward Ras-transformed BJeLR fibroblasts, dose response, cell-based, alamar blue fluorescence, cherrypicked samples (AID 2631); format: functional; conditions: Homo sapiens;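 further: confirmatory dose-response assay in RAS-dependent BJ fibroblasts engineered with TERT, LT and ST, with cytotoxicity read by fluorescence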
# [21] = inhibitors of firefly luciferase expression or activity, dose response, H4 neuroglioma cells, luminescence (AID 1990); format: functional, cell-based
# [22] = inhibitors of SNCA 5'UTR-driven reporter translation, confirmation, H4 neuroglioma cells, luminescence (AID 1988); format: functional, cell-based
# [23] = Luminescence Cell-Based Dose Response HTS to Identify Inhibitors of 5'UTR Stem-Loop Driven Prion Protein mRNA Translation in H4 Neuroglioblastoma Cells. [Related pubchem assays: 1827 (Project Summary), 1813 (Primary HTS)]; format: functional
# [24] = cytotoxicity in HEK-293T cells, dose response, cytotoxicity control for TCR NF-kB inhibitor project, luminescence, T-cell screen hits (AID 489026); format: functional, cell-based;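 further: cells exposed to compound about 14 hours before the viability readout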
# T3 sequence (Q92731 whole entry): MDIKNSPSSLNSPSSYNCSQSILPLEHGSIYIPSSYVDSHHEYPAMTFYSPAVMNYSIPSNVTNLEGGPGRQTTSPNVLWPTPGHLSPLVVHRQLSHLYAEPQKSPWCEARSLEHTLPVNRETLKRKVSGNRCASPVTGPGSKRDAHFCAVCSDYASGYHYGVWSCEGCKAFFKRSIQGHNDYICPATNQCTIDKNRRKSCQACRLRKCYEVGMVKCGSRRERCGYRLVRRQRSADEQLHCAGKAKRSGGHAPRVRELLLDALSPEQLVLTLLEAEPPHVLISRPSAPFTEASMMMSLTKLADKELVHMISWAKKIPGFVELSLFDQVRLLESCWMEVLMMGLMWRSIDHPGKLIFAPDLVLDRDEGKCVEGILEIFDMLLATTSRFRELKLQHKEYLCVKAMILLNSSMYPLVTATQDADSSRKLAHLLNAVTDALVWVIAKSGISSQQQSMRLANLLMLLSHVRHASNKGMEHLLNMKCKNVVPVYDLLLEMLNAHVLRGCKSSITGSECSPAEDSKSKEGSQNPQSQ
# Sequence of Large T antigen (P03070 whole entry): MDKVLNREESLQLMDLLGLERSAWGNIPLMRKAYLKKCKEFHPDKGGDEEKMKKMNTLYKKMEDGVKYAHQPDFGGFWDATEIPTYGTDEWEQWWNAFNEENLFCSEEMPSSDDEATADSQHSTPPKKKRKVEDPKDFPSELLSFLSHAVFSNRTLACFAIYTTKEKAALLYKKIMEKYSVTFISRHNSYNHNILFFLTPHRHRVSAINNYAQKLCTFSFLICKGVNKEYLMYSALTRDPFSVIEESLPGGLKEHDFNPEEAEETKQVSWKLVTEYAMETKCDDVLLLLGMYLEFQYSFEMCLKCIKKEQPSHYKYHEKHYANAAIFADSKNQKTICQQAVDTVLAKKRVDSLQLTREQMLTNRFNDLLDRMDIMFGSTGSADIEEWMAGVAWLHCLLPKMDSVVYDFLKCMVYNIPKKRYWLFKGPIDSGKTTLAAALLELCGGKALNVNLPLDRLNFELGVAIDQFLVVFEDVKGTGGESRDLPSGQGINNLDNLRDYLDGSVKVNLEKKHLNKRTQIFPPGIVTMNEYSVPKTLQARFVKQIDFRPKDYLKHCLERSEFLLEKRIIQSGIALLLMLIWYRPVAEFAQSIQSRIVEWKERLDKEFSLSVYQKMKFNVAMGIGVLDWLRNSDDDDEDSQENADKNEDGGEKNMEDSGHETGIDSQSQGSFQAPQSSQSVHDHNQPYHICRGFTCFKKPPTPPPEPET
# Sequence of Cyclin-dependent kinase 5/CDK5 activator 1 (Q00535 whole entry): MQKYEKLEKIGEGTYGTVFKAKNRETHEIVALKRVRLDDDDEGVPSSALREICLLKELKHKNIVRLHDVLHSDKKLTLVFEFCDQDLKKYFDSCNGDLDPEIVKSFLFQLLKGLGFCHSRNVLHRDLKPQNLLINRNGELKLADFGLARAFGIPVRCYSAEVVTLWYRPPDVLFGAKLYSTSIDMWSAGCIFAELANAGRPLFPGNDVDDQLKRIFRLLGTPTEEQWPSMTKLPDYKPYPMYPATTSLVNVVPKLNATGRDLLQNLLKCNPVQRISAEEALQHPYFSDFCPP
# Sequence of Cyclin-dependent kinase 5/CDK5 activator 1 (Q15078 whole entry, further chain): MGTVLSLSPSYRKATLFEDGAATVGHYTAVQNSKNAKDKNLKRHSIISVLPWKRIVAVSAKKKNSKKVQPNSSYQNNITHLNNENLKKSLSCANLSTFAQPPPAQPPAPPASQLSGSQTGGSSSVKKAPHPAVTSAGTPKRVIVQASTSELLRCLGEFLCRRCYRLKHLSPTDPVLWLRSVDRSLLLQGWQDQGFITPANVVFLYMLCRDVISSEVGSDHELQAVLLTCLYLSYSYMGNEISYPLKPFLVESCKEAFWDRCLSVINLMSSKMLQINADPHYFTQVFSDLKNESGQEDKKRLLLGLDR
# Sequence of G-protein coupled receptor 35 (Q9HC97 whole entry): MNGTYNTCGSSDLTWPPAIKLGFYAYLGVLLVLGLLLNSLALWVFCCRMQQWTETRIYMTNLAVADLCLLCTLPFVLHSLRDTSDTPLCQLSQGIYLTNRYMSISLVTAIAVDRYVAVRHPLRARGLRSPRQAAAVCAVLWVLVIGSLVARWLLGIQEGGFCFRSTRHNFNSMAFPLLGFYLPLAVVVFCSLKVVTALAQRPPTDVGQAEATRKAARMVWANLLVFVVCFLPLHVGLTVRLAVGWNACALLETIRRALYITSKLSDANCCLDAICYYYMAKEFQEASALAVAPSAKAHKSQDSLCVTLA
# Sequence of Trypsin (P00761 whole entry): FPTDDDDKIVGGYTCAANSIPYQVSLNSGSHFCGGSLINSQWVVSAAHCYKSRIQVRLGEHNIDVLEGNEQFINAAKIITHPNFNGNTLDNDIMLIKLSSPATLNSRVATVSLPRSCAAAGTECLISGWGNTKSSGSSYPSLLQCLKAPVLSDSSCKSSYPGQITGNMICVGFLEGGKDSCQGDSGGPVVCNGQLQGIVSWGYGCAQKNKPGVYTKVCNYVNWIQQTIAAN
# Sequence of FAD-linked sulfhydryl oxidase ALR (P55789 whole entry): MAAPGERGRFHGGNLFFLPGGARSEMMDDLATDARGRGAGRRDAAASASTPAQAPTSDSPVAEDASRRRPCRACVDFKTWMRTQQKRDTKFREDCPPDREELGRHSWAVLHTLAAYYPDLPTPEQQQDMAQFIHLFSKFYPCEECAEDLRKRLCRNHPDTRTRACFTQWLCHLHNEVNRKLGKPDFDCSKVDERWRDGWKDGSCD
# Sequence of CAAX prenyl protease 2 (Q03530 whole entry): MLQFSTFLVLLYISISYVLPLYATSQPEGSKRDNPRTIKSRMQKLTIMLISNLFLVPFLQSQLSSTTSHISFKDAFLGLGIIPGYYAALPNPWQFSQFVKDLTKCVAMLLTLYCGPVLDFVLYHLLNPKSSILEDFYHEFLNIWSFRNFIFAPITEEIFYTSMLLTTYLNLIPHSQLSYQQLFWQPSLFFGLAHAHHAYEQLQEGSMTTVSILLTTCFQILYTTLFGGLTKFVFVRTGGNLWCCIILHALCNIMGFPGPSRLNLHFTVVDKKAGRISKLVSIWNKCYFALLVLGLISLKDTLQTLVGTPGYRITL
# Sequence of Scavenger receptor class B member 1 (Q61009 whole entry): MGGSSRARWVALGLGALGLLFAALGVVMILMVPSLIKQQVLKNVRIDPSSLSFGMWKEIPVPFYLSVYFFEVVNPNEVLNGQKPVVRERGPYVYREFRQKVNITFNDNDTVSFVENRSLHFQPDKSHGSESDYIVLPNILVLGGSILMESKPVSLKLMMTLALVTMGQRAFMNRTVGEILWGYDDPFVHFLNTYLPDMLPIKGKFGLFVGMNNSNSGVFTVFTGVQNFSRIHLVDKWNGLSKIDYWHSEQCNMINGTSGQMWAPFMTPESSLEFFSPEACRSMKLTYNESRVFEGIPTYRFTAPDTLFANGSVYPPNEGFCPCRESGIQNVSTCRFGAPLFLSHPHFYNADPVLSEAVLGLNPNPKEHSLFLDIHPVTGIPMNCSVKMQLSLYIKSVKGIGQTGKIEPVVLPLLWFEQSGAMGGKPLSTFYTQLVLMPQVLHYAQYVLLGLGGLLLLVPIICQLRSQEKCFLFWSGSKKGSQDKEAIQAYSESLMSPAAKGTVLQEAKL
smiles,measurement,setting,value
COc1ccc(-c2cc3nc(C)c(CCC(=O)N4CCN(c5ccccn5)CC4)c(C)n3n2)c(OC)c1,AC50,CAAX prenyl protease 2,> 100 µM (inactive)
same,AC50,Trypsin,7.2 µM (active)
Cc1ccccc1NC(=O)NCC1CCN(c2ccc(S(=O)(=O)N3CCOCC3)cc2)CC1,AC50,[1],1.04 µM (active)
Nc1[nH]c2cc([N+](=O)[O-])ccc2c1-c1ccccn1,IC50,[2],82.9 µM (active)
same,IC50,[3],0.787 µM (active)
Oc1ccc(-c2nc(-c3ccc(O)c(O)c3)cs2)cc1,AC50,[4],5.09 µM (active)
same,AC50,[5],1.31 µM (active)
same,EC50,BJ [6],41.4 µM (active)
same,AC50,[7],> 70 µM (inactive)
same,AC50,[8],3.19 µM (active)
same,EC50,[9],33.5 µM (active)
same,IC50,Estrogen receptor beta [10],4.96 µM (active)
same,IC50,Estrogen receptor beta [11],90.7 µM (not active)
same,EC50,[12],2.67 µM (inconclusive)
same,EC50,[13],20.8 µM (inconclusive)
same,AC50,[14],1.22 µM (active)
same,EC50,BJ [15],2.89 µM (inconclusive)
same,IC50,Large T antigen,36.1 µM (active)
same,AC50,[16],23.5 µM (active)
same,EC50,BJ [17],> 150 µM (not active)
same,AC50,[18],29 µM (active)
same,AC50,[19],5.07 µM (active)
COC(=O)c1[nH]c2c(c1C)C(=O)CC(c1cccs1)C2 (configuration not stated),IC50,J774.A1,0.116 µM (active)
same,EC50,BJ [20],0.299 µM (active)
same,EC50,BJ [6],3.72 µM (inconclusive)
same,EC50,[21],4.98 µM (active)
same,EC50,[22],0.469 µM (active)
same,EC50,[23],7.34 µM (active)
same,EC50,[12],0.912 µM (active)
same,EC50,BJ [15],1.02 µM (active)
same,IC50,[24],> 80 µM (inactive)
same,EC50,BJ [17],0.873 µM (inconclusive)
